Source: ChEMBL document CHEMBL1201862, “PubChem BioAssay data set” (2004)
Calls of active or inactive are those of the source.

What was measured:
[1] = target: T1, Heat shock factor protein 1 (Mus musculus, UniProt P38532); assay: decrease of HSF1-responsive luciferase luminescence – cell-based, NIH3T3, dose retest, confirmation (AID 2382); type: functional;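 also: NIH3T3 fibroblasts with HSF1-driven luciferase reporter stressed by proteasome inhibitor MG132; luminescence from HSF1-driven luciferase expression after 8 hours of MG132 stress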
T1 sequence (P38532 whole entry): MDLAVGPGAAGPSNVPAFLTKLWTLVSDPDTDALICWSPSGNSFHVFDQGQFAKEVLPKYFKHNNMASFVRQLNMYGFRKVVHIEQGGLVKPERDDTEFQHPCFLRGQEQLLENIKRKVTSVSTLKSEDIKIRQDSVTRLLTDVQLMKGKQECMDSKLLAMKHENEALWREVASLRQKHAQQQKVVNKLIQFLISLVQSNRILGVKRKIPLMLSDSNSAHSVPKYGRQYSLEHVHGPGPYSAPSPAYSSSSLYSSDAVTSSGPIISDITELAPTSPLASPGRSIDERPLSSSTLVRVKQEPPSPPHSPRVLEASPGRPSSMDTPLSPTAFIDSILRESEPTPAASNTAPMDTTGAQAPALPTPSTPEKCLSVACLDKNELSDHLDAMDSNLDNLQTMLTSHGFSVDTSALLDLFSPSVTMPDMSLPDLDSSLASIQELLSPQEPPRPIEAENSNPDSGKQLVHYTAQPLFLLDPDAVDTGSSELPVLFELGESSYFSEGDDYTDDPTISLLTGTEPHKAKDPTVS

[2] = viability inhibitors of stage V gametocytes – luminescence, dose response (AID 1117278); type: functional, cell-based;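 also: gametocytes exposed to compound for 24 hours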
[3] = viability loss in human Jurkat cells – cell-based, luminescence, cytotoxicity control for P. falciparum gametocyte viability project, dose response (AID 1117277); type: functional;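 also: potency reflects loss of cellular ATP meaning fewer viable cells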
Prothrombin = Prothrombin (Homo sapiens, UniProt P00734); assay: Thrombin 1536 HTS Dose Response Confirmation. [Related pubchem assays: 1046 (Thrombin 1536 HTS; hits were confirmed in this assay)]; type: functional
BJ [4] = assay: BJ-TERT fibroblast viability loss – cell-based, RAS-independent, luminescence, dose response (AID 1933); type: functional; settings: Homo sapiens
BJ [5] = assay: cells; type: functional, cell-based; settings: Homo sapiens
BJ [6] = assay: BJ-TERT-LT-ST fibroblast viability loss – cell-based, RAS-independent, luminescence, dose response (AID 1935); type: functional; settings: Homo sapiens;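 also: BJ fibroblasts immortalized with TERT plus LT and ST oncogenes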
[7] = DRD fibroblast viability loss – cell-based, non-viral oncogenic, luminescence, dose response (AID 1934); type: functional; settings: Homo sapiens
[8] = target: Heat shock protein HSP 90-alpha (Homo sapiens, UniProt P07900); type: functional, organism-based
INS1 = assay: INS-1E survival protection against cytokine death – cell-based, luminescence, retest, dose response (AID 449756); type: functional; settings: Rattus norvegicus;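 also: cell death triggered by IL-1 beta plus TNF-alpha plus IFN-gamma mixture; protective hits raise ATP signal compared with cytokine alone wells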
[9] = blockers of HIV-1 envelope-mediated cell-cell fusion – cherry-pick, dose response (AID 652057); type: functional, cell-based
[10] = viability loss in CEM21 cells – cell-based, CellTiter-Glo luminescence, cherry-picked, cytotoxicity control for viral fusion inhibitor project, dose response (AID 652042); type: functional;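 also: potency for signal decrease meaning cytotoxicity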
[11] = blockers of HIV-1 ZM109 envelope-driven cell-cell fusion – HeLa effector, CEM target cells, luciferase, cherry-pick, dose response (AID 652058); type: functional, cell-based;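 also: luciferase signal from HIV-1 Env mediated cell-cell fusion of effector and target cells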
Paired box protein Pax-8 = Paired box protein Pax-8 (Homo sapiens, UniProt Q06710); assay: PAX8 transcriptional activity inhibition in RMG-I – RMG-I cells, luciferase, cherry-pick, dose response (AID 687027); type: functional, cell-based;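 also: luciferase reporter driven by Pax8 target thyroperoxidase promoter measured by SteadyGlo luminescence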
[12] = off-target signal loss in HeLa-CEM21 co-culture – HeLa F-luc CTL cells, cherry-picked, counter-screen for HIV-1 Env fusion inhibitor project, dose response (AID 652040); type: functional, cell-based;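 also: potency for signal decrease marking cytotoxic or nonspecific inhibition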
[13] = HIV-1 AD8 envelope cell-cell fusion blockers – cherry-pick, dose response (AID 652062); type: functional, cell-based;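 also: luciferase signal from cell-cell fusion driven by HIV-1 clade B AD8 Env; potency is for inhibitors of fusion seen as a drop in luminescence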
[14] = A549 cell cytotoxicity, dose response, cytotoxicity control, plate reader, cherry-pick, antagonist series (AID 743412); type: functional, cell-based
[15] = toxicity toward HepG2 liver cells – cell-based, plate reader, cherry-pick, antagonist series, cytotoxicity control, dose response (AID 743416); type: functional
[16] = blockers of bursicon-stimulated LGR2 cAMP reporter – cell-based, HEK293, CRE-luciferase reporter, cherry pick, set 2, dose response (AID 743343); type: functional;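 also: transfected cells were stimulated with diluted bursicon conditioned medium after compound addition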
[17] = general cell-killing toxicity readout – plate reader, dry powder samples, cytotoxicity control for PAX8 inhibitor project, dose response (AID 743021); type: functional, cell-based
[18] = blockade of melanocortin 4 receptor signaling – cell-based, plate reader, cherry pick, counter-screen for LGR2 antagonist project, dose response (AID 743444); type: functional;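 also: transfected HEK 293 cells stimulated with alpha-MSH peptide; potency of inhibitors of the alpha-MSH evoked signal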
[19] = viability loss in HEK293 cells – cell-based, plate reader, cherry-picked samples, cytotoxicity control, dose response (AID 743446); type: functional
14-3-3 protein gamma = target: T2, 14-3-3 protein gamma (Homo sapiens, UniProt P61981); assay: modulators of 14-3-3 gamma client binding – dose response (AID 711); type: functional
T2 sequence (P61981 whole entry): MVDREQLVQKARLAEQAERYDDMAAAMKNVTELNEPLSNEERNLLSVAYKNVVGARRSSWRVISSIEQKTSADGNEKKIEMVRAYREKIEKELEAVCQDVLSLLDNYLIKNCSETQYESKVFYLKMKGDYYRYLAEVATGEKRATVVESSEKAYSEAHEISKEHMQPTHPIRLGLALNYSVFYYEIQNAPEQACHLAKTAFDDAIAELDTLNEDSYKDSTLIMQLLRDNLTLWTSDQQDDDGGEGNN

[20] = target: E3 ubiquitin-protein ligase Mdm2 (Homo sapiens, UniProt Q00987); assay: MDM2-luc reporter signal enhancers, multi-concentration potency testing, MDM2 ubiquitin-protein ligase inhibitor program, whole-cell format, luminescence detection, 384-well microplate (AID 1394); type: functional;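 also: MDM2 E3 inhibitors raise luminescence so EC50 is for signal enhancement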
[21] = HPDE-C7 pancreatic duct cell viability loss – fluorescence, HTS (AID 430); type: functional, cell-based; settings: Homo sapiens
[22] = viability loss of HPDE-C7K cells – cell-based, fluorescence, HTS, primary screen (AID 431); type: functional; settings: Homo sapiens
[23] = target: T3, Replicative DNA helicase DnaB (Mycobacterium tuberculosis, UniProt P9WMR3); assay: DnaB intein splicing inhibitors, dose response, biochemical, cell-free fluorescence (AID 449749); type: functional
T3 sequence (P9WMR3 whole entry): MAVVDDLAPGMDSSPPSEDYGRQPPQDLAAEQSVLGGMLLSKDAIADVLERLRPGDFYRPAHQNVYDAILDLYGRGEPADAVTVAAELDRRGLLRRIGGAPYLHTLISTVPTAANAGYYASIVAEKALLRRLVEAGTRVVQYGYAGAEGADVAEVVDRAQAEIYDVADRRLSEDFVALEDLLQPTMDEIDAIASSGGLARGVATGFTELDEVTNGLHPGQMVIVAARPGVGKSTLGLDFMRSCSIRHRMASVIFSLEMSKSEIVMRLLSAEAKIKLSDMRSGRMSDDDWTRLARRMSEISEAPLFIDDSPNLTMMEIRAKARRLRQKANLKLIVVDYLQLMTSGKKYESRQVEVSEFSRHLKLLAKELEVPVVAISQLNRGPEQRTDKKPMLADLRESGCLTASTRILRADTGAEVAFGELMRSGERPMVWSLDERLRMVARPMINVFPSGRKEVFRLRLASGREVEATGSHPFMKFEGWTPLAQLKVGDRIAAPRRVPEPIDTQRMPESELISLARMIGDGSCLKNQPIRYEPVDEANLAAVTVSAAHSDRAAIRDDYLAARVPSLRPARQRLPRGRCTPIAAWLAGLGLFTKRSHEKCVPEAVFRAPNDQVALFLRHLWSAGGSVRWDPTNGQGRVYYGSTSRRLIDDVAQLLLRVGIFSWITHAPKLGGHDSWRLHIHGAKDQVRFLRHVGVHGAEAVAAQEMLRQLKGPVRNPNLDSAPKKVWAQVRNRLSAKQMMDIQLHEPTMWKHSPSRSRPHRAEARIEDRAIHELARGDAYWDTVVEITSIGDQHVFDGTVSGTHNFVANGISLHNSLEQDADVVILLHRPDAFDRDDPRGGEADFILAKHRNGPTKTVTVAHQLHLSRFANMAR

Vero = assay: viability of Vero cells under compound – cytotoxicity control for flavivirus capping enzyme inhibitors (AID 588742); type: functional; settings: Chlorocebus sabaeus
Protein RecA = target: T4, Protein RecA (Mycobacterium tuberculosis, UniProt P9WHJ3); assay: Fluorescence Cell-Free Homogeneous Dose Retest to Identify Inhibitors of RecA-Intein Splicing Activity. [Related pubchem assays (depositor defined):AID2097, AID2223, AID489010, AID492950]; type: functional
T4 sequence (P9WHJ3 whole entry): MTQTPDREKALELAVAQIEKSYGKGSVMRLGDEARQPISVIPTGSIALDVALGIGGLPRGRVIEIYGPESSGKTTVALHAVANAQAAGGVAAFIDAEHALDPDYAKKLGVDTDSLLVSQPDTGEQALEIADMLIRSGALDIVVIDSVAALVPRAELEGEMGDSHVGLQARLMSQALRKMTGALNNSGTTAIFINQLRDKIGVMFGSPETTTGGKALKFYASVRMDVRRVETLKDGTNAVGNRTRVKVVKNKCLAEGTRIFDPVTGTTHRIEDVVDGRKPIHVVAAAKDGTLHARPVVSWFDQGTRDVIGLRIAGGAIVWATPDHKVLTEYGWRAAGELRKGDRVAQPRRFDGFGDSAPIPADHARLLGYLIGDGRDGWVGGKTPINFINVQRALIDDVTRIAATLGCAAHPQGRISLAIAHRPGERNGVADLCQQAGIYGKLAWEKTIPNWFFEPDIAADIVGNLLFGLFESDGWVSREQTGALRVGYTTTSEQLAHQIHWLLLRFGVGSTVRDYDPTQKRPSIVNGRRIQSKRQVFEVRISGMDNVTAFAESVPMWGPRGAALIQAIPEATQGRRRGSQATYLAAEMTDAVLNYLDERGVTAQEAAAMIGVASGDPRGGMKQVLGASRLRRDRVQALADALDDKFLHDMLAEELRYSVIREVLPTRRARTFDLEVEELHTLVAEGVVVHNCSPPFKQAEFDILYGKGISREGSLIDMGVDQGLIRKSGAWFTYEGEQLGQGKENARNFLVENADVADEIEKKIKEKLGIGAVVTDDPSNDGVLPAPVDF

[24] = target: Induced myeloid leukemia cell differentiation protein Mcl-1 (Homo sapiens, UniProt Q07820); assay: blockers of MCL1 binding to BIM peptide – biochemical, fluorescence polarization, BIM-BH3 peptide, 1536-well, dose response (AID 2217)
Bcl-2-like protein 1 = Bcl-2-like protein 1 (Homo sapiens, UniProt Q07817); assay: blockers of BCLXL peptide binding – biochemical, fluorescence polarization, 1536-well, selectivity assay for MCL1 inhibitor project, dose response (AID 2218)
[25] = viability loss in THP-1 monocytes – THP-1 cells, cytotoxicity control for Vif-APOBEC3G degradation inhibitor project, dose response (AID 1117359); type: functional; settings: THP-1

Chain of E3 ubiquitin-protein ligase Mdm2 (Q00987 whole entry): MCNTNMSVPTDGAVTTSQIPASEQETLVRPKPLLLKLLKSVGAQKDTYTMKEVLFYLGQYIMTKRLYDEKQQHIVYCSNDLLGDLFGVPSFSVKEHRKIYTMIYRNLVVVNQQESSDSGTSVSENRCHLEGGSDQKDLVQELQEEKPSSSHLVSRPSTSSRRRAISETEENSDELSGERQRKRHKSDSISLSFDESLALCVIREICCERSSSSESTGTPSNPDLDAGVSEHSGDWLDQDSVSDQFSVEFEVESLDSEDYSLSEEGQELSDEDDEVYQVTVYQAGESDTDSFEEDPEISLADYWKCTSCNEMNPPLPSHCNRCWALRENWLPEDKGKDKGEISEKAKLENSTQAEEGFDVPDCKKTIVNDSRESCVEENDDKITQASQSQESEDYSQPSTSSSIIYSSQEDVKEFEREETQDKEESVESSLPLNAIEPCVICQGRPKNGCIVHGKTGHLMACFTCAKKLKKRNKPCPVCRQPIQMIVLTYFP
Chain of Bcl-2-like protein 1 (Q07817 whole entry): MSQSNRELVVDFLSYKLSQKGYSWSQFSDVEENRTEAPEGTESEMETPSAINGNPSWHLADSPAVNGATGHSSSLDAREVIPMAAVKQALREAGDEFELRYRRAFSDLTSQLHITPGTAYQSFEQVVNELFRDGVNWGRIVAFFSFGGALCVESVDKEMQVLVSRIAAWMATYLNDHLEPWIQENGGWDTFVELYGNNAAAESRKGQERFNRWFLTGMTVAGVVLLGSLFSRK
Chain of Paired box protein Pax-8 (Q06710 whole entry, the tested form may be a part): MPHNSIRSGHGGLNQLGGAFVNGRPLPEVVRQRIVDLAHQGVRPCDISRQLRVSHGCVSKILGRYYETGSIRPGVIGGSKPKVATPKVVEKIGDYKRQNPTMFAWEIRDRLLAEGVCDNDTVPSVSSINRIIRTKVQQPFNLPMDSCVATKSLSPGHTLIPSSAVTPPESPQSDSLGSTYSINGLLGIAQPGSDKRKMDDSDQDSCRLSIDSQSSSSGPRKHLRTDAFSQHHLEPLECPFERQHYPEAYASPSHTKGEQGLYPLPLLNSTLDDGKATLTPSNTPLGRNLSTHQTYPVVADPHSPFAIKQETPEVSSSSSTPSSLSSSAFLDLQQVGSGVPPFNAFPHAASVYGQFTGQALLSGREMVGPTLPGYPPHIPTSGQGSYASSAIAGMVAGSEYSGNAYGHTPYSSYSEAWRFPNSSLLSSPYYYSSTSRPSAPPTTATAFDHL
Chain of Induced myeloid leukemia cell differentiation protein Mcl-1 (Q07820 whole entry): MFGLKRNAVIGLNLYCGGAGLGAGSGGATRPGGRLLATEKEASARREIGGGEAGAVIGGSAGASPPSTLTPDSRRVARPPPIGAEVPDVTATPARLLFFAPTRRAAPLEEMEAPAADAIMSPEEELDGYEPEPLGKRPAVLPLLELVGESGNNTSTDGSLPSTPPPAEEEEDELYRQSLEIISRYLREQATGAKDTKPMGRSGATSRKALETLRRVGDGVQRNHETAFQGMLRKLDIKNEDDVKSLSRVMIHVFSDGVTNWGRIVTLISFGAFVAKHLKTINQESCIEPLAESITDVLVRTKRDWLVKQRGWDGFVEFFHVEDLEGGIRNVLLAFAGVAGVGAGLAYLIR

CN(C)c1nc(OCCNC(=O)COc2ccc(Cl)cc2Cl)nc(N(C)C)n1
EC50 [1]: > 195 µM (not active)
IC50 [2]: > 109 µM (inactive)
IC50 [3]: > 83.3 µM (inactive)

COc1ccc(C(=O)n2ncc(C#N)c2N)cc1
IC50 (Prothrombin): 15.1 µM (active)

Cc1nn(-c2nc3ccccc3[nH]2)c(=O)c2ccccc12
EC50 (BJ [4]): 1.06 µM (active)
EC50 (BJ [5]): 1.04 µM (active)
EC50 (BJ [6]): 3.5 µM (active)
EC50 [7]: 1.01 µM (active)
AC50 [8]: 4.97 µM (active)
AC50 (INS1): 1.3 µM (active)
AC50 [9]: 0.534 µM (active)
AC50 [10]: 2.08 µM (active)
AC50 [11]: 5.84 µM (active)
AC50 (Paired box protein Pax-8): 1.54 µM (active)
AC50 [12]: 1.36 µM (active)
AC50 [13]: 1.46 µM (active)
AC50 [14]: 2.04 µM (active)
AC50 [15]: 14.8 µM (active)
AC50 [16]: 0.352 µM (active)
AC50 [17]: 1.72 µM (active)
AC50 [18]: 0.352 µM (active)
AC50 [19]: 2.33 µM (active)
IC50 [2]: 8.6 µM (active)
IC50 [3]: 2.41 µM (active)

Cc1ccccc1CS(=O)(=O)Cc1ccc(C(=O)NCc2ccccn2)o1
IC50 (14-3-3 protein gamma): 50 µM (not active)

COc1cc2nc(CN(C)Cc3ccc(F)cc3)nc(O)c2cc1OC
IC50 [2]: > 109 µM (inactive)
IC50 [3]: > 83.2 µM (inactive)

COc1ccc(C)cc1NC(=O)C(OC(=O)CNC(=O)c1cc(C)cc(C)c1)c1ccccc1 (stereo not given)
EC50 [20]: 7.51 µM (not active)

CCCc1n[nH]c2c1C(c1ccc(Br)s1)C(C#N)=C(N)O2 (stereo not given)
EC50 [21]: 5.48 µM (active)
EC50 [22]: 7 µM (active)
AC50 [23]: 8.54 µM (active)
CC50 (Vero): 39.9 µM (active)
EC50 (Protein RecA): 7.21 µM (active)

c1ccc2c(-c3nnc4n3CCCCC4)cc(-c3ccncc3)nc2c1
IC50 (Prothrombin): > 50 µM (not active)

COc1ccc(N2C(S)=NC(=Nc3ccccc3)C23CCCCC3)cc1
IC50 (Prothrombin): > 50 µM (not active)

CCCN(CCC)CCNc1c(NC2CCN(C(=O)OCC)CC2)c(=O)c1=O
EC50 [20]: 16.1 µM (not active)

O=[N+]([O-])c1cc(CN2CCCC2)c2cccnc2c1O
IC50 [24]: 2.7 µM (active)
IC50 (Bcl-2-like protein 1): > 109 µM (not active)
CC50 [25]: > 40 µM (active)

CCCCC1(C(=O)OCC)CC(CN2CCOCC2)OC1=O (stereo not given)
IC50 (14-3-3 protein gamma): > 50 µM (not active)
